# Data taken from paper PMC12388617, “Development and Biochemical Characterization of Quorum Quenching Enzyme from Deep-Sea Bacillus velezensis DH82” (Microorganisms, 2025).
# Assays:
# YtnPDH82 = target: T1, YtnPDH82 (Bacillus velezensis, UniProt A7Z7T2); assay: UPLC-QTOF MS of residual AHL (m/z […]), Lineweaver-Burk; assay type: biochemical; conditions: pH 6.5, 28 °C, 45 min; substrate 200-350 µM (far below the printed Km)
# T1 construct: gene RBAM_027000; full length, pET28a EcoRI/XhoI, His6 at N- and C-terminus, E. coli BL21, Ni-NTA; primer-encoded start METLNIGNF
# T1 sequence (A7Z7T2 entry or part of it): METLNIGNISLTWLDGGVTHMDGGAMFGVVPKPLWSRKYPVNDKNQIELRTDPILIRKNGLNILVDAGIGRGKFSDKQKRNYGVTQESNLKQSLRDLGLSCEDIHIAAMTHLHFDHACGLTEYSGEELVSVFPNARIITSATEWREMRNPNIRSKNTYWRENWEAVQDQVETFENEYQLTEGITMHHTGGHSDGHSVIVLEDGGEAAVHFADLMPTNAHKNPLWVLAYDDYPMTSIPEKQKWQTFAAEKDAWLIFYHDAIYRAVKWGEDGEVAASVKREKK
# AiiADH82 = tested on: T2, AiiADH82; assay: as above; assay type: biochemical, Bacillus velezensis; conditions: pH 6.5, 28 °C, 45 min; substrate 200-350 µM (far below the printed Km)
# T2 construct: gene aiiA; full length, pET28a NdeI/XhoI, His6 at N- and C-terminus, E. coli BL21, Ni-NTA; primer-encoded start MTVKKLYF
structure (smiles),measurement,setting,value
CCCC(=O)CC(=O)N[C@H]1CCOC1=O [3-oxo-C6-HSL],Km,YtnPDH82,15.3 mM
same,Km,AiiADH82,7.8 mM
